Values joined by “and” are separate entries in the source; they are usually repeats but may differ in a detail not shown here. Equal entries are not always repeated. Toxic doses and inconclusive results are not listed.
Test system: L1210 leukemia ip in BDF1 mice, survival T/C
Assay: NCI In Vivo Anticancer Drug Screen. Data for tumor model L1210 Leukemia (intraperitoneal) in B6D2F1 (BDF1) mice
Details: higher = longer survival
Method in brief: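 Survival endpoint. Drug-treated group vs vehicle group, expressed as T divided by C. Tumor passaged by transplantation.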

CC(C)[C@]12O[C@H]1[C@@H]1O[C@]13[C@]1(O[C@H]1C[C@H]1C4=C(C(=O)OC4)[C@@H](O)C[C@@]13C)[C@@H]2O
T/C (endpoint: mean survival time, dose: 2.4 micrograms/kg/injection, schedule: Q01DX009 (oral), vehicle: Klucel (hydroxypropylcellulose) (HPC)): 105 % of control | T/C (endpoint: mean survival time, dose: 4.8 micrograms/kg/injection, schedule: Q01DX009 (oral), vehicle: Klucel (hydroxypropylcellulose) (HPC)): 102 % of control | T/C (endpoint: mean survival time, dose: 9.5 micrograms/kg/injection, schedule: Q01DX009 (oral), vehicle: Klucel (hydroxypropylcellulose) (HPC)): 101 % of control | T/C (endpoint: mean survival time, dose: 13.0 micrograms/kg/injection, schedule: Q01DX009 (ip), vehicle: saline): 94 % of control and 111 % of control | T/C (endpoint: mean survival time, dose: 19.0 micrograms/kg/injection, schedule: Q01DX009 (oral), vehicle: Klucel (hydroxypropylcellulose) (HPC)): 116 % of control | T/C (endpoint: mean survival time, dose: 25.0 micrograms/kg/injection, schedule: Q01DX009 (ip), vehicle: saline): 108 % of control and 110 % of control | T/C (endpoint: mean survival time, dose: 38.0 micrograms/kg/injection, schedule: Q01DX009 (oral), vehicle: Klucel (hydroxypropylcellulose) (HPC)): 107 % of control | T/C (endpoint: mean survival time, dose: 38.0 micrograms/kg/injection, schedule: Q01DX009 (oral), vehicle: saline + alcohol): 103 % of control | T/C (endpoint: mean survival time, dose: 100.0 micrograms/kg/injection, schedule: Q01DX009 (ip), vehicle: saline): 150 % of control and 159 % of control | T/C (endpoint: mean survival time, dose: 200.0 micrograms/kg/injection, schedule: Q01DX009 (ip), vehicle: saline): 198 % of control | T/C (endpoint: median survival time, dose: 0.06 mg/kg/injection, schedule: Q01DX009 (ip), vehicle: saline + alcohol): 113 % of control | T/C (endpoint: median survival time, dose: 0.06 mg/kg/injection, schedule: Q01DX009 (ip), vehicle: saline with Tween-80): 114 % of control and 124 % of control | T/C (endpoint: median survival time, dose: 0.06 mg/kg/injection, schedule: Q01DX009 (sc), vehicle: saline + alcohol): 102 % of control | T/C (endpoint: median survival time, dose: 0.06 mg/kg/injection, schedule: Q04DX003 (ip), vehicle: saline + alcohol): 98 % of control | T/C (endpoint: median survival time, dose: 0.12 mg/kg/injection, schedule: Q01DX009 (sc), vehicle: saline + alcohol): 107 % of control | T/C (endpoint: median survival time, dose: 0.12 mg/kg/injection, schedule: Q04DX003 (ip), vehicle: saline + alcohol): 106 % of control | T/C (endpoint: median survival time, dose: 0.12 mg/kg/injection, schedule: Q08DX002 (ip), vehicle: saline + alcohol): 102 % of control | T/C (endpoint: median survival time, dose: 0.13 mg/kg/injection, schedule: Q01DX009 (ip), vehicle: saline + alcohol): 156 % of control | T/C (endpoint: median survival time, dose: 0.13 mg/kg/injection, schedule: Q01DX009 (oral), vehicle: saline + alcohol): 100 % of control and 120 % of control | T/C (endpoint: median survival time, dose: 0.25 mg/kg/injection, schedule: Q01DX001 (ip), vehicle: saline + alcohol): 102 % of control | T/C (endpoint: median survival time, dose: 0.25 mg/kg/injection, schedule: Q01DX009 (ip), vehicle: saline + alcohol): 178 % of control and 195 % of control | T/C (endpoint: median survival time, dose: 0.25 mg/kg/injection, schedule: Q01DX009 (ip), vehicle: saline with Tween-80): 185 % of control and 202 % of control | T/C (endpoint: median survival time, dose: 0.25 mg/kg/injection, schedule: Q01DX009 (sc), vehicle: saline + alcohol): 151 % of control | T/C (endpoint: median survival time, dose: 0.25 mg/kg/injection, schedule: Q04DX003 (ip), vehicle: saline + alcohol): 107 % of control | T/C (endpoint: median survival time, dose: 0.25 mg/kg/injection, schedule: Q08DX002 (ip), vehicle: saline + alcohol): 109 % of control | T/C (endpoint: median survival time, dose: 0.5 mg/kg/injection, schedule: Q01DX001 (ip), vehicle: saline + alcohol): 113 % of control | T/C (endpoint: median survival time, dose: 0.5 mg/kg/injection, schedule: Q01DX009 (ip), vehicle: saline + alcohol): 95 % of control | T/C (endpoint: median survival time, dose: 0.5 mg/kg/injection, schedule: Q04DX003 (ip), vehicle: saline + alcohol): 113 % of control | T/C (endpoint: median survival time, dose: 0.5 mg/kg/injection, schedule: Q08DX002 (ip), vehicle: saline + alcohol): 114 % of control | T/C (endpoint: median survival time, dose: 8.0 micrograms/kg/injection, schedule: Q03HX024 (ip), vehicle: saline + alcohol): 104 % of control | T/C (endpoint: median survival time, dose: 8.0 micrograms/kg/injection, schedule: Q03HX024 (sc), vehicle: saline + alcohol): 94 % of control | T/C (endpoint: median survival time, dose: 15.6 micrograms/kg/injection, schedule: Q03HX024 (sc), vehicle: saline + alcohol): 98 % of control | T/C (endpoint: median survival time, dose: 16.0 micrograms/kg/injection, schedule: Q03HX024 (oral), vehicle: saline + alcohol): 98 % of control and 101 % of control | T/C (endpoint: median survival time, dose: 31.2 micrograms/kg/injection, schedule: Q03HX008 (ip), vehicle: saline + alcohol): 117 % of control | T/C (endpoint: median survival time, dose: 31.2 micrograms/kg/injection, schedule: Q03HX024 (ip), vehicle: saline + alcohol): 157 % of control | T/C (endpoint: median survival time, dose: 31.2 micrograms/kg/injection, schedule: Q03HX024 (sc), vehicle: saline + alcohol): 103 % of control | T/C (endpoint: median survival time, dose: 31.3 micrograms/kg/injection, schedule: Q03HX024 (oral), vehicle: saline + alcohol): 110 % of control | T/C (endpoint: median survival time, dose: 62.5 micrograms/kg/injection, schedule: Q03HX024 (ip), vehicle: saline + alcohol): 162 % of control | T/C (endpoint: median survival time, dose: 62.5 micrograms/kg/injection, schedule: Q03HX024 (sc), vehicle: saline + alcohol): 165 % of control

Reference: PubChem BioAssay AID248 (DTP/NCI, 2004)
